Source: patent US9682931B2, “Aryloyl(oxy or amino)pentafluorosulfanylbenzene compound, pharmaceutically acceptable salt thereof, and prodrugs thereof” (UBE INDUSTRIES, LTD., priority 2013, dated 2017)
Converted amounts (≈) assume the structure as drawn.

How the values were obtained:
[1] = molecular target: T1, Topoisomerase I (Homo sapiens, UniProt P11387); experiment: Topoisomerase I assay; assay type: biochemical; design: key to Inhibitory activity Topoisomerase I: ∘: Inhibitory activity is present; Δ: Weak inhibitory activity is present; x: No inhibitory activity is present
T1 sequence (P11387 1-765): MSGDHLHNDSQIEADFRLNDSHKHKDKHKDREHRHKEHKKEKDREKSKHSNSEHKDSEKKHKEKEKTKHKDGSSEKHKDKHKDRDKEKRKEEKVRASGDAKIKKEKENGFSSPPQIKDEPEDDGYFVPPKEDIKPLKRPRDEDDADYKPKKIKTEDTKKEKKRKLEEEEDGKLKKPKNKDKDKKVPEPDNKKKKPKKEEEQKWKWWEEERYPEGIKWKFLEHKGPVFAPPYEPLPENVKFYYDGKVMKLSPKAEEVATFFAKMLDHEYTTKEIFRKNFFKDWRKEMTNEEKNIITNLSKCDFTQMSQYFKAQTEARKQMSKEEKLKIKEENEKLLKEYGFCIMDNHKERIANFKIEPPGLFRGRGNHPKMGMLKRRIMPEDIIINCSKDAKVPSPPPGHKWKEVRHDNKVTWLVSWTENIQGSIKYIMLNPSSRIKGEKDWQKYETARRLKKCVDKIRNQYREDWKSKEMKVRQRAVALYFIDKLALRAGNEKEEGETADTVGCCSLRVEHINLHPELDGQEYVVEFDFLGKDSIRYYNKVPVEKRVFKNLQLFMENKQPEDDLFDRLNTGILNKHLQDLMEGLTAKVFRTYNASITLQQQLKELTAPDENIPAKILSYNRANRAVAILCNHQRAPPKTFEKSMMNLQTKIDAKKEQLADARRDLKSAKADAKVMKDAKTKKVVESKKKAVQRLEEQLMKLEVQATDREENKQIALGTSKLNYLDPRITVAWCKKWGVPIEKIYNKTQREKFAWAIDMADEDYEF
Procedure: The inhibitory action of a test substance (Compound 3) on Topoisomerase I and Topoisomerase II was examined.
Topoisomerase I (4 units) was subjected to the following assay performed in the assay conditions, which were determined by a preliminary examination, for a reaction time of 2 hours.
(1) An assay solution was prepared in accordance with the following table.

[2] = test system: A549 (lung cancer); experiment: Evaluation of anticancer action, cell proliferation inhibition (WST-8), A549; assay type: cell-based; details: Homo sapiens, A549, about 72 hours
Source text: (§1) The cell proliferation inhibitory effects of a test substance (Compound 3) on various types of cancer cells were examined.
(§2) 1. Measuring Reagent and Analysis Software
(§3) WST-8 Kit (Cat. No. 260-96165 or 260-96162; manufactured by Kishida Chemical Co., Ltd.) for counting cell number
(§4) Software for graph making and measurement of GI50 value: XLfit 5.2 (ID Business Solutions Ltd.)
(§5) 2. Cells and Culture Conditions
(§6) Five types of cells and medium (the following Table) were used. The cells were obtained from the Research Resource Bank of the Human Sciences Foundation.
(§7) On the day when a sample was to be added, the sample was weighed and a medium for each type of cells was added so as to be 500 μg/mL. Sonication was performed while warming at 37° C. for 60 minutes to be dissolved. Then, filtration was performed by a 0.22 m-filter. The 500 μg/mL-solution was diluted with the medium for each type of cells to prepare 200 μg/mL, 60 μg/mL, 20 μg/mL, 6 μg/mL, 2 μg/mL, 0.6 μg/mL and 0.2 μg/mL solutions, which were specified as two-fold concentration test solutions (the final concentrations of the test substance were 250 µg/mL, 100 μg/mL, 30 μg/mL, 10 μg/mL, 3 μg/mL, 1 μg/mL, 0.3 μg/mL, […], respectively). […]
(§8) (8) Absorbance values at 450 nm and 650 nm were measured to calculate O.D. 450 and O.D. 650. […]
(§9) ODdrug-exposed wells: absorbance of a well containing a sample […]

[3] = test system: Hep G2 (liver cancer); experiment: Evaluation of anticancer action, cell proliferation inhibition (WST-8), Hep G2; assay type: cell-based; details: Homo sapiens, HepG2, Hep G2, about 72 hours
Source text: as §1, §2, §3, §4, §5, §6, §7, §8, §9

[4] = test system: MKN1 (stomach cancer); experiment: Evaluation of anticancer action, cell proliferation inhibition (WST-8), MKN1; assay type: cell-based; details: Homo sapiens, MKN-1, MKN1, about 72 hours
Source text: as §1, §2, §3, §4, §5, §6, §7, §8, §9

[5] = test system: MCF-7 (breast cancer); experiment: Evaluation of anticancer action, cell proliferation inhibition (WST-8), MCF-7; assay type: cell-based; details: Homo sapiens, MCF7, MCF-7, about 72 hours
Source text: as §1, §2, §3, §4, §5, §6, §7, §8, §9

O=C(Nc1ccc(S(F)(F)(F)(F)F)cc1)c1cc(O)c(O)c(O)c1 [Compound 3, 4-(3,4,5-trihydroxybenzoylamino)pentafluorosulfanylbenzene]
Topoisomerase I inhibitory activity ([1]; 500 μg/mL): inhibitory activity was confirmed
Inhibitory activity Topoisomerase I ([1]; final concentration 0.5 μg/mL): x
Inhibitory activity Topoisomerase I ([1]; final concentration 5 μg/mL): x
Inhibitory activity Topoisomerase I ([1]; final concentration 50 μg/mL): x
Inhibitory activity Topoisomerase I ([1]; final concentration 500 μg/mL): ∘
GI50 [2]: 13.3 mg/L (≈ 35.8 µM)
GI50 [3]: 9.8 mg/L (≈ 26.4 µM)
GI50 [4]: 5.1 mg/L (≈ 13.7 µM)
GI50 [5]: 13.6 mg/L (≈ 36.6 µM)
